Reference: patent US20250250265A1, “BENZOTHIAZOLE-PHENYLSULFONYL-PIPERIDINE ANALOGS AS ACTIVATORS OF NACYLPHOSPHATIDYLETHANOLAMINE HYDROLYZING PHOSPHOLIPASE D” (priority 2022, published 2025)
Entries after “also recorded” stand apart in the source; their conditions may differ.

What was measured:
[1] = molecular target: T1, soluble epoxide hydrolase (sEH) (Homo sapiens, UniProt P34913); assay: sEH activity assay (Cayman Chemicals); assay type: biochemical; details: for inhibition at 33 µM: 33 μM compound, compared to vehicle (0%); for Remaining sEH Activity (33 μM): Table 3; for inhibition of sEH activity: graded concentrations
T1 construct: purchased Cayman Chemicals
T1 sequence (P34913 1-555): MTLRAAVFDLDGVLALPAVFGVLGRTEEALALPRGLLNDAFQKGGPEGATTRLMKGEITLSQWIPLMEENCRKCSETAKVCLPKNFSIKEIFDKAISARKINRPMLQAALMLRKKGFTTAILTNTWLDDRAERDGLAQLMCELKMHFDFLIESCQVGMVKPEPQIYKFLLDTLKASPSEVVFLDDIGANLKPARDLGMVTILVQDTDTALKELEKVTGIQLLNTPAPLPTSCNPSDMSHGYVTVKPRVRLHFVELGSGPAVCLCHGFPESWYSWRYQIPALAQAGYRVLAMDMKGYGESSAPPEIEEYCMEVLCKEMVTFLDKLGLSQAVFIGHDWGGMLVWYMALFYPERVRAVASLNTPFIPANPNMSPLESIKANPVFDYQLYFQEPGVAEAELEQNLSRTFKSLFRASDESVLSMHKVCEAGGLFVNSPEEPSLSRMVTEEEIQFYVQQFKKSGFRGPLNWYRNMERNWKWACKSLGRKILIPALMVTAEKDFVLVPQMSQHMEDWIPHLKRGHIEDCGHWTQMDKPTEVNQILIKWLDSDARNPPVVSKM
Protocol: (§1) Concentration response curves were plotted for VU534 for the enzymes fatty acid amide hydrolase (FAAH) and soluble epoxide hydrolase (sEH).
(§2) The fluorescence interference assay was performed using the same method as the HTS assay, but with BODIPY-FL C5 (Thermo Fisher Scientific) used in place of PED-A1. sEH and FAAH activity assays were performed according to the manufacturer's specifications (Cayman Chemicals).

[2] = molecular target: T2, Fatty Acid Amide Hydrolase (FAAH) (Homo sapiens, UniProt O00519); assay: FAAH activity assay (Cayman Chemicals); assay type: biochemical; details: for inhibition at 33 µM: 33 μM compound, compared to vehicle (0%); for Remaining FAAH Activity (33 μM): Table 3; for inhibition of FAAH activity: graded concentrations up to 33 μM
T2 construct: purchased Cayman Chemicals
T2 sequence (O00519 1-579): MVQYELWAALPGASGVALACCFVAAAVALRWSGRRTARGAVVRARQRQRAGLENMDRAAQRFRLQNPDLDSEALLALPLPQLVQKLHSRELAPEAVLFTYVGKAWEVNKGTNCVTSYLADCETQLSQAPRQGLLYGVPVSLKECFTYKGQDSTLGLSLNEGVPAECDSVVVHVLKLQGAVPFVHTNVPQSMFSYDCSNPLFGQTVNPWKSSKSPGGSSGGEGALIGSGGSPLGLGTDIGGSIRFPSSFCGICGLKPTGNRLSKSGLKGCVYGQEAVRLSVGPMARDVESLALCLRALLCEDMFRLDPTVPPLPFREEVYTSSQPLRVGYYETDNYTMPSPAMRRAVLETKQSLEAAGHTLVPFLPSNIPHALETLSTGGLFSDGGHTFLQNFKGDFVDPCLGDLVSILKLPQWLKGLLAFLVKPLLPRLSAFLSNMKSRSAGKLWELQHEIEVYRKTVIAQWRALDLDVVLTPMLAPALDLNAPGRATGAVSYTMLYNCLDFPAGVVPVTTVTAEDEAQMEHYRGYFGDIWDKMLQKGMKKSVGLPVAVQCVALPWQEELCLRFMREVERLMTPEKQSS
Protocol: as §1, §2

[3] = test system: HepG2 human hepatocytoma cells; assay: Cytotoxicity (MTT) in HepG2 cells; assay type: cell-based; details: for % HepG2 viability (33 μM): Table 3; for cytotoxicity in HepG2 cells: up to / at 30 μM
Protocol: Cytotoxicity was measured using MTT as previously described except that the studies used 96-well plates with 100 μL of 0.3 mg/mL MTT solution was added after 24 h of treatment and then replaced after 3 h with 0.1 M HCl in isopropanol. See Aggarwal et al., J. Biol. Chem. 295(21): 7289-7300 (2020). Viability was expressed as percent absorbance at 560 nm relative to vehicle controls.

[4] = molecular target: T3, NAPE-PLD activity of HepG2 cells (Homo sapiens, UniProt Q6IQ20); assay: Cell-based NAPE-PLD activity in HepG2 cells (flame-NAPE); details: for In-cell NAPE-PLD activity in HepG2 (10 μM) with PED-A1 or flame-NAPE as substrate: Table 3; for Emax / EC50: HepG2 cells; for Emax: % maximal induced activity (Table 2, Example 7); for EC50: flame-NAPE (Table 2, Example 7); for effect on NAPE-PLD activity in HepG2 cells: graded concentrations
T3 construct: endogenous in cells; host or cells: HepG2
T3 sequence (Q6IQ20 whole entry): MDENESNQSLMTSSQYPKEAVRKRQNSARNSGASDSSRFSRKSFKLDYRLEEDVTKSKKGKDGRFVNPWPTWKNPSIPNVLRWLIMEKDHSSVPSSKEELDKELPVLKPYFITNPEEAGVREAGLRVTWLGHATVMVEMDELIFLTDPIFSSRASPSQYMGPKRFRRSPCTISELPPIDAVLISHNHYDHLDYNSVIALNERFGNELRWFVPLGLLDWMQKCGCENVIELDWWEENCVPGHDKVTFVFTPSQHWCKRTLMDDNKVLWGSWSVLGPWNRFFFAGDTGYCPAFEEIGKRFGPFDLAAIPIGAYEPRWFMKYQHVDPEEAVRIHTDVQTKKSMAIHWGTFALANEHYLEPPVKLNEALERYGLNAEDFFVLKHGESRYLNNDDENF
Protocol: In vitro models of the hepatic steatosis of non-alcoholic fatty liver disease (NAFLD) are well-established, with the primary method being incubation of primary human hepatocytes or hepatocyte cell lines such as HepG2, HuH7, HepaRG, with oleic acid and palmitic acid for 24 to 48 h, then measuring the resulting steatosis, lipid peroxidation, apoptosis, and inflammatory gene expression. Using flame-NAPE to measure NAPE-PLD activity in the human hepatoma HepG2 cell line, the experimental data confirmed that VU534 activated NAPE-PLD in human cells (AC50 940 nM; max % bA 155%). Bithionol (10 μM) reduced HepG2 flame-NAPE hydrolysis by >67%.
NAPE-PLD activity was measured in cells as previously described, except that FluoroBrite DMEM (Gibco A1896701) was used as media. See Zarrow et al., J. Lipid Res. 63(1): 100156 (2022). For RAW264.7 assays, PED-A1 (3.6 μM final) was used as the substrate with 10 μM orlistat added to inhibit PLA1 activity, while for HepG2 cells, flame-NAPE was used (with no orlistat added).

| Compound | inhibition at 33 µM [1] | inhibition at 33 µM [2] | In-cell NAPE-PLD activity in HepG2 (10 μM) with PED-A1 or flame-NAPE as substrate [4] | Remaining sEH Activity (33 μM) [1] | Remaining FAAH Activity (33 μM) [2] | % HepG2 viability (33 μM) [3] | further results |
| --- | --- | --- | --- | --- | --- | --- | --- |
| Cc1cccc2sc(NC(=O)C3CCN(S(=O)(=O)c4ccc(F)c(Cl)c4)CC3)nc12 [MRJ-058B] | 50% | < 15% | – | – | – | – | – |
| Cc1cccc2sc(NC(=O)C3CCN(S(=O)(=O)c4cccnc4)CC3)nc12 [MRJ-058C] | 50% | < 15% | – | – | – | – | – |
| Cc1cccc2sc(NC(=O)C3CCN(S(=O)(=O)c4cnn(C)c4)CC3)nc12 [MRJ-058D] | 20% | < 15% | – | – | – | – | – |
| O=C(Nc1nc2ccccc2s1)C1CCN(S(=O)(=O)c2cccnc2)CC1 [VU203] | – | – | 122% | 59% | 79% | 41% | – |
| Cc1cccc2sc(NC(=O)C3CCN(S(=O)(=O)c4ccc(F)c(Cl)c4)CC3)nc12 [VU209] | – | – | 206% | 62% | 88% | 73% | – |
| Cc1cccc2sc(NC(=O)C3CCN(S(=O)(=O)c4cnn(C)c4)CC3)nc12 [VU210] | – | – | 124% | 81% | 89% | 67% | – |
| Cc1cccc2sc(NC(=O)C3CCN(S(=O)(=O)c4cccnc4)CC3)nc12 [VU211] | – | – | 148% | 48% | 86% | 72% | – |
| Cn1cc(S(=O)(=O)N2CCC(C(=O)Nc3nc4ccccc4s3)CC2)cn1 [VU227] | – | – | 125% | 63% | 97% | 66% | – |
| Cc1ccc(C)c2sc(NC(=O)C3CCN(S(=O)(=O)c4ccc(F)cc4)CC3)nc12 [VU533] | – | – | – | – | – | – | cytotoxicity in HepG2 cells [3]: no cytotoxicity; Emax, NAPE-PLD activity of HepG2 cells ([4]; FIG. 18B, flame-NAPE): 1.6 fold; effect on NAPE-PLD activity in HepG2 cells ([4]; flame-NAPE): increased NAPE-PLD activity; inhibition of sEH activity [1]: neither VU533 nor VU233 significantly inhibited seH; inhibition of FAAH activity [2]: only weak inhibition |
| Cc1cc(C)c2sc(NC(=O)C3CCN(S(=O)(=O)c4ccc(F)cc4)CC3)nc2c1 [VU534, N-(5,7-Dimethylbenzo[d]thiazol-2-yl)-1-((4-fluorophenyl)sulfonyl)piperidine-4-carboxamide] | 75% | < 15% | 211% | 27% | 86% | 91% | cytotoxicity in HepG2 cells [3]: minimal cytotoxicity; Emax, NAPE-PLD activity of HepG2 cells ([4]; FIG. 18B, flame-NAPE): 1.6 fold; AC50 ([4]; HepG2, flame-NAPE (Example 7)): 940 nM; max % bA in HepG2 cells ([4]; HepG2, flame-NAPE (Example 7)): 155%; Emax [4]: 145%; EC50 [4]: 2400 nM; effect on NAPE-PLD activity in HepG2 cells ([4]; flame-NAPE): increased NAPE-PLD activity; also recorded: enhances NAPE-PLD activity; inhibition of sEH activity [1]: inhibition of sEH; also recorded: modest inhibition; also recorded: inhibits; inhibition of FAAH activity [2]: no inhibition of FAAH; also recorded: only weak inhibition; also recorded: does not inhibit |

Further lines, with some results ahead:

| inhibition at 33 µM [1] | inhibition at 33 µM [2] | In-cell NAPE-PLD activity in HepG2 (10 μM) with PED-A1 or flame-NAPE as substrate [4] | Remaining sEH Activity (33 μM) [1] | Remaining FAAH Activity (33 μM) [2] | Compound | % HepG2 viability (33 μM) [3] | further results |
| --- | --- | --- | --- | --- | --- | --- | --- |
| – | – | 130% | 117% | 90% | O=C(Nc1nc2ccccc2s1)C1CCN(S(=O)(=O)c2ccc(F)c(Cl)c2)CC1 [VU233] | 69% | cytotoxicity in HepG2 cells [3]: no cytotoxicity; EC50, NAPE-PLD activity of HepG2 cells ([4]; FIG. 18B, flame-NAPE): not calculable; inhibition of sEH activity [1]: neither VU533 nor VU233 significantly inhibited seH; inhibition of FAAH activity [2]: only weak inhibition |
| 40% | < 15% | – | 60% | 89% | Cc1ccc2nc(NC(=O)C3CCN(S(=O)(=O)c4ccc(F)cc4)CC3)sc2c1 [VU486] | – | – |
| 70% | < 15% | – | 29% | 90% | Cc1ccc2sc(NC(=O)C3CCN(S(=O)(=O)c4ccc(F)cc4)CC3)nc2c1C [VU517] | – | Emax [4]: 185%; EC50 [4]: 8900 nM; effect on NAPE-PLD activity in HepG2 cells ([4]; flame-NAPE): enhances NAPE-PLD activity |
| 50% | 25% | – | 49% | 75% | Cc1cc2nc(NC(=O)C3CCN(S(=O)(=O)c4ccc(F)cc4)CC3)sc2cc1C [VU536] | – | – |
| 45% | < 15% | – | 55% | 90% | Cc1ccc(S(=O)(=O)N2CCC(C(=O)Nc3nc4c(C)cc(C)cc4s3)CC2)cc1 [VU575] | – | Emax [4]: 145%; EC50 [4]: 3100 nM; effect on NAPE-PLD activity in HepG2 cells ([4]; flame-NAPE): enhances NAPE-PLD activity |
